pEC50, pIC50: −log10 of the molar value. Where two headings read alike, the source gives them in different places. Blank lines part the entries; values can stand above or below the molecule they belong to.
Experiments:
[1] = test system: P. falciparum NF54 GFP-Pfs16 gametocytes stage IV-V; conditions: ref [71]; cited from earlier work
P. falciparum 3D7 or K1 = assay: Asexual Blood Stage Imaging Assay (DAPI) V. Avery; type: cell-based
[2] = test system: P. falciparum NF54 GFP-Pfs16 gametocytes stage I-III; conditions: ref [71]; cited from earlier work
[3] = test system: bovine Babesia and equine Babesia and Theileria parasites; assay: Babesia and Theileria fluorescence-based assay, all four species; type: cell-based, B. bovis, B. bigemina, T. equi, B. caballi
[4] = test system: P. falciparum 3D7 trophozoites; assay: Metabolomic fingerprint profiling LC-MS; type: cell-based, Plasmodium falciparum; parameters: UDP-D-glucose / ADP-D-glucose: unit not given here; conditions: for Acetyllysine / N-acetyl-L-ornithine / N-carbamoyl-L-aspartate / NADPH / dAMP / dCMP / dTDP / dTMP / dTTP / dihydroorotate / orotate / DLH / DLS/SDL/SID / PD / PEE / PVNF / 3-phosphoglycerate / ADP-D-glucose / ATP / CDP / D-sedoheptulose-1/7-phosphate / FAD / GMP / NAD+ / NADP+ / Octoluse Bisphosphate / Pyroglutamic acid / UDP-D-glucose / UDP-D-glucuronate / UDP-N-acetyl-glucosamine / UDP / UMP / UTP / a-ketoglutarate / citrate/isocitrate / cytidine / dATP / dGMP/AMP / fumarate / glucose-1/6-phosphate / glycerate / guanine / guanosine / hypoxanthine / indole / inosine / nicotinate / ornithine / phosphoenolpyruvate / pyruvate / ribose-phosphate / sarcosine/alanine / sn-glycerol-3-phosphate / succinate/methylmalonic acid / uridine / xanthosine: S2 Table Metabolomics; for Acetyllysine: metabolite Acetyllysine; for N-acetyl-L-ornithine: metabolite N-acetyl-L-ornithine; for N-carbamoyl-L-aspartate: metabolite N-carbamoyl-L-aspartate; for NADPH: metabolite NADPH; for dAMP: metabolite dAMP; for dCMP: metabolite dCMP; for dTDP: metabolite dTDP; for dTMP: metabolite dTMP; for dTTP: metabolite dTTP; for dihydroorotate: metabolite dihydroorotate; for orotate: metabolite orotate; for DLH: peptide DLH; for DLS/SDL/SID: peptide DLS/SDL/SID; for PD: peptide PD; for PEE: peptide PEE; for PVNF: peptide PVNF; for 3-phosphoglycerate: metabolite 3-phosphoglycerate; for ADP-D-glucose: metabolite ADP-D-glucose; for ATP: metabolite ATP; for CDP: metabolite CDP; for CDP / D-sedoheptulose-1/7-phosphate / GMP / Octoluse Bisphosphate / UDP / UMP / UTP / citrate/isocitrate / dGMP/AMP / fumarate / glucose-1/6-phosphate / glycerate / guanine / guanosine / inosine / pyruvate / sarcosine/alanine / succinate/methylmalonic acid / uridine / xanthosine: change in metabolite level after compound treatment; for D-sedoheptulose-1/7-phosphate: metabolite D-sedoheptulose-1/7-phosphate; for FAD: metabolite FAD; for GMP: metabolite GMP; for NAD+: metabolite NAD+; for NADP+: metabolite NADP+; for Octoluse Bisphosphate: metabolite Octoluse Bisphosphate; for Pyroglutamic acid: metabolite Pyroglutamic acid; for UDP-D-glucose: metabolite UDP-D-glucose; for UDP-D-glucuronate: metabolite UDP-D-glucuronate; for UDP-N-acetyl-glucosamine: metabolite UDP-N-acetyl-glucosamine; for UDP: metabolite UDP; for UMP: metabolite UMP; for UTP: metabolite UTP; for a-ketoglutarate: metabolite a-ketoglutarate; for citrate/isocitrate: metabolite citrate/isocitrate; for cytidine: metabolite cytidine; for dATP: metabolite dATP; for dGMP/AMP: metabolite dGMP/AMP; for fumarate: metabolite fumarate; for glucose-1/6-phosphate: metabolite glucose-1/6-phosphate; for glycerate: metabolite glycerate; for guanine: metabolite guanine; for guanosine: metabolite guanosine; for hypoxanthine: metabolite hypoxanthine; for indole: metabolite indole; for inosine: metabolite inosine; for 2_3-Diphosphoglyceric acid / 4-phosphopantothenate / 6-phospho-D-gluconate / FMN / IMP / Pyrophosphate / Sedoheptoluse bisphosphate / cyclic-AMP / glutathione disulfide / lactate / myo-inositol: metabolite level change after treatment; for nicotinate: metabolite nicotinate; for ornithine: metabolite ornithine; for phosphoenolpyruvate: metabolite phosphoenolpyruvate; for pyruvate: metabolite pyruvate; for ribose-phosphate: metabolite ribose-phosphate; for sarcosine/alanine: metabolite sarcosine/alanine; for sn-glycerol-3-phosphate: metabolite sn-glycerol-3-phosphate; for succinate/methylmalonic acid: metabolite succinate/methylmalonic acid; for uridine: metabolite uridine; for xanthosine: metabolite xanthosine
P. falciparum = assay: EC50 listed in S2 Table Metabolomics (used to set the concentration tested); type: cell-based; conditions: Plasmodium falciparum, read-out: EC50_nM
[5] = test system: HIV-1 JR-FL or HIV-1 NL4-3 pseudoviruses; assay: HIV-1 pseudovirus infection luciferase; type: cell-based; conditions: 10µM
Description: (§1) Columns FK-GB, Moore group (data presented first in this paper). HIV and HIV-producing cell lines, toxicity and viral suppression. […] MMV compounds were incubated with HIV-1 JR-FL or HIV-1 NL4-3 pseudoviruses and U87-CD4-CCR5 or U87-CD4-CXCR4 cells (obtained through the NIH AIDS Reagent Program, Division of AIDS, NIAID, NIH: U87 CD4+CCR5+ Cells from Dr. HongKui Deng and Dr. Dan R. Littman) respectively for 3 days. Cells were assayed for infection by luciferase production (Bright-Glo Luciferase Substrate, Promega) and cell viability by MTT assay. […] MMV compounds were next incubated with HIV-1 JR-FL or HIV-1 NL4-3 viruses and U87-CD4-CCR5 or U87-CD4-CXCR4 cells respectively for 7 days. Cell supernatants were assayed for viral production by p24 ELISA [153] and cell viability by MTT assay. […] DMSO (5%) was completely toxic to all cells (based on visual inspection) and served as the positive control for MTT assays.

[6] = test system: HIV-1 JR-FL or HIV-1 NL4-3 viruses; assay: HIV-1 viral production p24 ELISA; type: cell-based; conditions: 10µM
Description: as §1

P. falciparum HB3 = assay: Stage-specificity / mitochondrial integrity image assay Ayong; type: cell-based; conditions: 10µM
Chromera velia = Chromera velia flagellation motility assay
[7] = Plasmodium falciparum, read-out: P. falciparum 3D7 asexual blood stage EC50 (Image) V. Avery
[8] = Plasmodium falciparum, read-out: P. falciparum K1 asexual blood stage EC50 (Image) V. Avery

SMILES: CCc1nc(N)nc(N)c1-c1ccc(Cl)cc1 [pyrimethamine, reference compound]
late gametocyte imaging, no activity at [1]: > 40 µM | pEC50 (P. falciparum 3D7 or K1; [7]): 8.70 | pEC50 (P. falciparum 3D7 or K1; [8]): 5.14 | early gametocyte imaging, no activity at [2]: > 40 µM

pEC50 (P. falciparum 3D7 or K1; [7]): 8.52 | pEC50 (P. falciparum 3D7 or K1; [8]): 8.30
SMILES: COc1ccc2nc3cc(Cl)ccc3c(Nc3cc(CN4CCCC4)c(O)c(CN4CCCC4)c3)c2n1 [pyronaridine]

anti-Babesia and anti-Theileria hits, IC50 in words [3]: nanomolar IC50s | pEC50 (P. falciparum; EC50 used for Factor_XEC50 in metabolomics): 6.59
SMILES: CN(C)c1ccc(C(O)(c2ccc(N(C)C)cc2)c2ccc(N(C)C)cc2)cc1 [MMV665941]
Acetyllysine [4]: -1.017 | N-acetyl-L-ornithine [4]: -0.7597 | N-carbamoyl-L-aspartate [4]: -0.9197 | NADPH [4]: 0.7329 | dAMP [4]: -0.1528 | dCMP [4]: -0.8045 | dTDP [4]: -0.3693 | dTMP [4]: -0.3724 | dTTP [4]: 0.2892 | dihydroorotate [4]: -0.7761 | orotate [4]: -0.6971 | DLH [4]: -0.3436 | DLS/SDL/SID [4]: -0.7858 | PD [4]: -0.9616 | PEE [4]: -0.896 | PVNF [4]: -0.9967 | 3-phosphoglycerate [4]: -0.2513 | ADP-D-glucose [4]: -0.2022 | ATP [4]: -0.1582 | CDP [4]: -0.3781 | D-sedoheptulose-1/7-phosphate [4]: -0.2425 | FAD [4]: -0.1824 | GMP [4]: -1.314 | NAD+ [4]: -0.1192 | NADP+ [4]: 0.08054 | Octoluse Bisphosphate [4]: -0.4622 | Pyroglutamic acid [4]: -0.1275 | UDP-D-glucose [4]: -0.08523 | UDP-D-glucuronate [4]: -0.09688 | UDP-N-acetyl-glucosamine [4]: -0.3177 | UDP [4]: -0.7488 | UMP [4]: -1.259 | UTP [4]: -0.2947 | a-ketoglutarate [4]: -0.5688 | citrate/isocitrate [4]: -0.2269 | cytidine [4]: 0.5361 | dATP [4]: 0.2904 | dGMP/AMP [4]: -0.7364 | fumarate [4]: -0.9732 | glucose-1/6-phosphate [4]: -0.5386 | glycerate [4]: -0.5934 | guanine [4]: -0.3347 | guanosine [4]: -0.8332 | hypoxanthine [4]: -0.2046 | indole [4]: -0.2792 | inosine [4]: -0.51 | 2_3-Diphosphoglyceric acid [4]: -0.09061 | 4-phosphopantothenate [4]: -0.6586 | 6-phospho-D-gluconate [4]: -0.08067 | FMN [4]: 0.05461 | IMP [4]: -0.2283 | Pyrophosphate [4]: -0.1004 | Sedoheptoluse bisphosphate [4]: -0.2916 | cyclic-AMP [4]: 0.03248 | glutathione disulfide [4]: -0.3448 | lactate [4]: -0.6265 | myo-inositol [4]: -1.035 | nicotinate [4]: 0.06813 | ornithine [4]: -0.116 | phosphoenolpyruvate [4]: -0.1381 | pyruvate [4]: -0.3661 | ribose-phosphate [4]: -0.3246 | sarcosine/alanine [4]: -0.4581 | sn-glycerol-3-phosphate [4]: -0.06155 | succinate/methylmalonic acid [4]: -1.567 | uridine [4]: -0.4322 | xanthosine [4]: -0.131

SMILES: C[n+]1c2ccccc2nc2ccc(NCCO)cc21 [MMV396693]
anti-Babesia and anti-Theileria hits, IC50 in words [3]: nanomolar IC50s | mean selectivity indices (SI) [3]: greater than 230 | pIC50 ([3]; Babesia, read-out: IC50s for both bovine Babesia and equine Babesia and Theileria parasites): 6.12 to 7.37 | Acetyllysine [4]: -0.1505 | N-acetyl-L-ornithine [4]: -0.01449 | N-carbamoyl-L-aspartate [4]: 0.2036 | NADPH [4]: 1.101 | dAMP [4]: 0.3768 | dCMP [4]: -0.245 | dTDP [4]: -0.2826 | dTMP [4]: -0.3704 | dTTP [4]: 0.008069 | dihydroorotate [4]: 0.3914 | orotate [4]: -0.3502 | DLH [4]: 0.01259 | DLS/SDL/SID [4]: 0.07661 | PD [4]: 0.009709 | PEE [4]: -0.05476 | PVNF [4]: 0.1478 | 3-phosphoglycerate [4]: 0.5809 | ADP-D-glucose [4]: 0.23 | ATP [4]: 0.04335 | CDP [4]: -0.06362 | D-sedoheptulose-1/7-phosphate [4]: -0.05616 | FAD [4]: 0.2669 | GMP [4]: 0.08605 | NAD+ [4]: 0.2129 | NADP+ [4]: 0.2138 | Octoluse Bisphosphate [4]: 0.3676 | Pyroglutamic acid [4]: 0.1161 | UDP-D-glucose [4]: 0.1757 | UDP-D-glucuronate [4]: 0.2718 | UDP-N-acetyl-glucosamine [4]: 0.1832 | UDP [4]: -0.3369 | UMP [4]: -0.448 | UTP [4]: 0.03764 | a-ketoglutarate [4]: -0.1814 | citrate/isocitrate [4]: 1.401 | cytidine [4]: 0.9119 | dATP [4]: 0.0739 | dGMP/AMP [4]: 0.007618 | fumarate [4]: 0.1883 | glucose-1/6-phosphate [4]: -0.01569 | glycerate [4]: 0.2787 | guanine [4]: 0.244 | guanosine [4]: 0.1378 | hypoxanthine [4]: 0.1496 | indole [4]: 0.3367 | inosine [4]: 0.5603 | 2_3-Diphosphoglyceric acid [4]: 0.305 | 4-phosphopantothenate [4]: 0.02035 | 6-phospho-D-gluconate [4]: 0.201 | FMN [4]: 0.1776 | IMP [4]: 0.1162 | Pyrophosphate [4]: 0.4038 | Sedoheptoluse bisphosphate [4]: 0.06738 | cyclic-AMP [4]: 0.09405 | glutathione disulfide [4]: 0.1827 | lactate [4]: 0.3349 | myo-inositol [4]: -0.009161 | nicotinate [4]: 0.1527 | ornithine [4]: 0.2843 | phosphoenolpyruvate [4]: 0.01034 | pyruvate [4]: -0.1004 | ribose-phosphate [4]: 0.7027 | sarcosine/alanine [4]: 0.6024 | sn-glycerol-3-phosphate [4]: 0.3061 | succinate/methylmalonic acid [4]: 0.6812 | uridine [4]: 0.1028 | xanthosine [4]: 0.2966 | pEC50 (P. falciparum): 6.53

SMILES: CC[C@H](C)[C@H](NC(=O)[C@H]([C@@H](C)CC)N(C)C(C)=O)C(=O)N[C@H](C(=O)N[C@@H](CC(C)C)C(=O)[C@@]1(C)CO1)[C@@H](C)O [epoxomicin]
pEC50 (P. falciparum 3D7 or K1; 3D7, read-out: P. falciparum 3D7 asexual blood stage EC50 (Image) V. Avery): 9.00 | pEC50 (P. falciparum 3D7 or K1; K1, read-out: P. falciparum K1 asexual blood stage EC50 (Image) V. Avery): 8.70

SMILES: Cc1cn([C@H]2C[C@H](N=[N+]=[N-])[C@@H](CO)O2)c(=O)[nH]c1=O [AZT, reference compound]
viral infection by luciferase, positive control [5]: completely blocked viral infection | viral infection by p24 production, positive control [6]: completely blocked viral infection

SMILES: CC(=O)N[C@@H]1[C@@H](O)[C@H](O)[C@@H](CO)O[C@H]1O [GlcNAC, N-acetylglucosamine, reference compound]
Effects on asexual life cycle progression (treatment at ER, LR, T, S; merozoites; mitochondrial integrity) (P. falciparum HB3): LR-o-o-o-X-o

SMILES: Oc1cc(Cl)ccc1Oc1ccc(Cl)cc1Cl [triclosan, reference compound]
C. velia flagellation score (Chromera velia; 0.1 µM): + | C. velia flagellation score (Chromera velia; 1µM): 0

From article PMC4965013, “Open Source Drug Discovery with the Malaria Box Compound Collection for Neglected Diseases and Beyond” (PLoS Pathogens, 2016)
